Experimental data reported in US20220370484A1, “NOVEL USE OF NICOTINAMIDE MONONUCLEOTIDE (NMN) AND NICOTINAMIDE RIBOSIDE (NR)” (Senju Pharmaceutical Co., Ltd., priority 2019, published 2022).

Legend:
Format in all cases: in vivo, mouse
meibomian gland tissue = test: Lipid stained tissue observation (meibomian gland volume evaluation), whole mount Herxheimer's staining; conditions: 1.75 year old WT mice, 5% eye drop (5 μL/eye, 4 times/day, only right eye), 3 months, vs Vehicle (phosphate buffered saline)
Experimental: Meibomian gland tissue in mice was stained in accordance with the following protocol.
As a preparation method of 100 mL of staining solution, a bottle of stock solution prepared by dissolving Sudan IV to saturate in 100% ethanol was left standing in advance, and 70 mL of as much of the supernatant, 20 mL of 10% NaOH, and 10 mL of ultrapure water were mixed, tumbled for 5 minutes, and centrifuged to allow powder to precipitate. The supernatant was filtered with a 0.45 μm filter and used as a staining solution.
The cervical vertebrae of mice was dislocated, and skin of the head including meibomian glands was sampled. The sample was immersed in 4% paraformaldehyde while keeping the sample flat with a drawing pin, and immobilized using a rotator at 4° C. for 24 hours. The periphery of meibomian glands was trimmed. The meibomian glands were immersed in 50% ethanol by using a rotator at room temperature for 10 minutes, then immersed for 20 minutes in 70% ethanol, and immersed in a staining solution using a rotator at room temperature for 24 hours in a falcon tube. The meibomian glands were then immersed for 10 minutes in 70% ethanol, and washing was repeated several times to confirm that the meibomian glands were stained well. The meibomian glands were immersed for 24 hours in amino alcohol in glycerin prepared by mixing 3.75 mL of 80% amino alcohol with 8.25 mL glycerin. […]

[1] = test system: lipid components in meibomian glands; test: Lipid analysis of meibomian glands after eye drop instillation (APCI); conditions: 1.75 year old WT mice, eye drop instillation 3 months as Example 3, compared to Vehicle (phosphate buffered saline)
Experimental: (1) The Eye Drop Instillation Experiment is Performed in the Same Manner as Example 3. Meibomian glands are harvested from an eyelid of a euthanized mouse. Two meibomian glands harvested from one of the eyes of each animal are each placed in a glass vial containing 1 mL of chloroform:methanol=2:1 (v/v) solvent mixture for lipid extraction, and lipids are extracted. The extract is relocated into a new vial. The extract can be stored for several months at −20° C. or lower by evaporating the solution under nitrogen. The extract is then dissolved in a suitable solvent, and lipid composition is analyzed by APCI.

[2] = test system: meibomian gland basal cells; test: Cell proliferation assay through BrdU incorporation staining after eye drop instillation; conditions: 1.5 year old WT mice, 5% eye drop (5 μL/eye, 6 times/day, only right eye), 2 weeks, vs Vehicle (phosphate buffered saline)
Experimental: [table] BrdU (100 mg/kg body weight, Sigma-Aldrich) was intraperitoneally injected 30 minutes prior to harvesting eyelid tissue from a mouse. An eyelid comprising meibomian glands was immobilized with 4% PFA and embedded in paraffin. Antigens were activated by pressurizing a 5 μm thick segment for 2.5 minutes in 10 mM sodium citrate buffer (pH 6.0). After incubating the segment for 24 hours at 4° C. by using an anti-BrdU antibody (1:1000 dilution; Rockland Inc.), the immune response was made visible with 3,3′-diaminobenzidine (DAB) using secondary antibody Envision+ System—HRP Labelled Polymer Anti-Rabbit (Dako). For each tissue segment, BrdU positive cells in the basal cell layer of a meibomian gland were counted on a digital microscope picture captured at 20× magnification. The length of the outer circumference of a meibomian gland acinus was measured with ImageJ software, and the total BrdU positive cell count was normalized with the length of the outer circumference. The BrdU positive cells were counted by using 16 segments per individual.

Hsd3b6 = test: Measurement of meibomian gland Hsd3b6 enzymatic activity (steroid synthesis activity) after eye drop instillation; conditions: 1.5 year old WT mice, 5% eye drop (5 μL/eye, 6 times/day, only right eye), 2 weeks, vs Vehicle (phosphate buffered saline)
Experimental: The meibomian gland Hsd3b6 enzymatic activity in mice was measured in accordance with the following protocol.
Hank's balanced salt solution (HBSS) was bubbled with […] for 1 hour or more, and dispensed in 2 mL tubes at 200 μL each. The lid was closed while filled with […]. HBSS was warmed with a 37° C. water bath. A reaction incubator was warmed to 37° C., and a micro tube mixer was installed therein.
The main power of a flow liquid scintillation counter (Perkin Elmer, Radiomatic 625TR) was turned on, and the main power of HPLC (Waters, 2795 Separations Module) was turned on to perform setup. Mobile phase A was replaced with water, and mobile phase B was replaced with acetonitrile. Once a column (Kanto Chemical, LiChroCART 250-4, LiChrosphere 100RP-18, particle size: 5 μm, 4 mm I.D.×250 mm) was installed, 40% acetonitrile (ACN) (A: 60%, B: 40%) was flown at 0.7 mL/min. The column oven temperature at this time was set to 40° C.
^3H-DHEA was added to 1 mL of 40% ACN contained in a 2 mL tube, and the mixture was tapped. A microtube was set on an HPLC holder, and single administration was selected. The peak of contaminant produced after 22 minutes was not collected. […]

| Compound | meibomian gland volume (meibomian gland tissue) | Lipid components in a meibomian gland [1] | BrdU positive cell count in meibomian gland basal cells [2] | Hsd3b6 enzymatic activity in a meibomian gland (Hsd3b6) |
| --- | --- | --- | --- | --- |
| NC(=O)c1ccc[n+]([C@@H]2O[C@H](CO)[C@@H](O)[C@H]2O)c1 [NR, Nicotinamide riboside] | significant increase | normalized | increased significantly |  |
| Nicotinamide mononucleotide [NMN] | significant increase | normalized | increased significantly | increased significantly |
